pIC50: −log10 of the molar value.
Tests used:
[1] = target: T1, HDAC11 (untagged) (Homo sapiens, UniProt Q96DB2); assay: continuous fluorescence assay, trypsin-coupled, initial rates; assay type: biochemical; conditions: […] enzyme, HEPES pH […], no BSA, […] °C
T1 sequence (Q96DB2 1-347): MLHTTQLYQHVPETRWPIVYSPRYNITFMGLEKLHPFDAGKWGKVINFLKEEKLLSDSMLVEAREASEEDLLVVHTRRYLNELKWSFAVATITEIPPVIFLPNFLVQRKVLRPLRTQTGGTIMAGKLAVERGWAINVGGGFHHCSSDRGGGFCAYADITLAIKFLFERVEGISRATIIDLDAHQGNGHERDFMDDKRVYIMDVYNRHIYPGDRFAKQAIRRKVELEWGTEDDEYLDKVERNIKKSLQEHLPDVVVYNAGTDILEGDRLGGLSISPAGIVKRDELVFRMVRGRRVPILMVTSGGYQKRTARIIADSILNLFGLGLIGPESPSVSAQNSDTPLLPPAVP

[2] = target: T1, HDAC11 (untagged); assay: end-point fluorescence demyristoylase assay, trypsin release of AMC; assay type: biochemical

Km [1] [µM] | pIC50 [2] | Molecule
60 |  | Ac-ETDKmyr-AMC [6e]
 | < 4.00 | C/C=C1\NC(=O)[C@H]2CSSCC/C=C/[C@H](CC(=O)N[C@H](C(C)C)C(=O)N2)OC(=O)[C@H](C(C)C)NC1=O [romidepsin]

Reference: article doi:10.1101/211839v1 (biorxiv, 2017)
